Test results reported in ChEMBL document CHEMBL1138756, “Entry into a new class of potent proteasome inhibitors having high antiproliferative activity by structure-based design” (J Med Chem, 2004).

Assays:
Proteasome [1] = test: Inhibition of chymotrypsin-like proteolytic activity of purified human proteasome in cultured MDA-MB 435 Cells; format: subcellular
Proteasome [2] = test: Inhibition of post glutamyl l-peptide (PGPH) proteolytic activity of purified human proteasome
Proteasome [3] = test: Inhibition of chymotrypsin-like proteolytic activity of purified human proteasome; format: subcellular
Proteasome [4] = test: Inhibition of trypsin-like proteolytic activity of purified human proteasome; format: subcellular
MDA-MB-435 = test: Inhibition of MDA-MB 435 cell proliferation; format: functional, cell-based; conditions: Homo sapiens

| SMILES | IC50 (Proteasome [1]) [nM] | IC50 (Proteasome [2]) [nM] | IC50 (Proteasome [3]) [nM] | IC50 (Proteasome [4]) [nM] | IC50 (MDA-MB-435) [nM] |
| --- | --- | --- | --- | --- | --- |
| COc1ccc(CNC(=O)[C@@H](NC(=O)[C@H](Cc2ccc(OC)c(OC)c2)NC(=O)Cc2ccccc2)C(C)C)c(O)c1 | – | – | 1000 | – | – |
| COc1ccc(CN[C@@H](C(=O)N[C@H](C(=O)NCc2ccc(OC)cc2O)C(C)C)[C@H](O)[C@H](Cc2ccccc2)NC(=O)[C@@H](NC(=O)OCc2ccccc2)C(C)(C)C)cc1 | – | > 20000 | 900 | > 20000 | – |
| COc1ccc(CNC(=O)[C@@H](NC(=O)[C@H](Cc2ccc(OC)c(OC)c2)NC(=O)Cc2cccc(Oc3ccccc3)c2)C(C)C)c(O)c1 | – | > 20000 | 60 | > 20000 | 900 |

The next compounds have a lower IC50 (Proteasome [3]) than those just listed; values first:

| IC50 (Proteasome [1]) [nM] | IC50 (Proteasome [2]) [nM] | IC50 (Proteasome [3]) [nM] | IC50 (Proteasome [4]) [nM] | IC50 (MDA-MB-435) [nM] | SMILES |
| --- | --- | --- | --- | --- | --- |
| 20 | > 20000 | 10 | > 20000 | 60 | COc1ccc(CNC(=O)[C@@H](NC(=O)[C@H](Cc2cc(OC)c(OC)c(OC)c2)NC(=O)Cc2cccc(Oc3ccccc3)c2)C(C)C)c(O)c1 |
| – | > 20000 | 7 | > 20000 | 1500 | COc1ccc(CNC(=O)[C@@H](NC(=O)[C@H](NCc2cc(OC)c(OC)c(OC)c2)[C@H](O)[C@H](Cc2ccccc2)NC(=O)[C@@H](NC(=O)Cc2cccc3ccccc23)C(C)(C)C)C(C)C)c(O)c1 |
